{"source": "ChEMBL document CHEMBL3046449", "about": "“Selective Herbicidal Activities of Ethyl 5-(4, 6-Dimethoxypyrimidin-2-ylcarbamoylsulfamoyl)-1-methylpyrazole-4-carboxylate and Its Related Compounds” (J Pestic Sci, 1990)", "key": {"Eleocharis kuroguwai [1]": {"test_system": "Eleocharis kuroguwai", "test": "Herbicidal activity against Eleocharis kuroguwai assessed as growth inhibition measured after 2 days by pre-emergence activity assay", "assay_type": "functional"}, "Oryza sativa [2]": {"test_system": "Oryza sativa", "test": "Effect on Oryza sativa (rice) plant growth in transplanted Oryza sativa field assessed as plant height at 20 g/ha treated after 3 days transplanting", "assay_type": "organism-based", "conditions": "in vivo, other, 72 h"}, "unidentified [3]": {"test_system": "unidentified", "test": "Herbicidal activity against broadleaf weed assessed as weed control in transplanted rice field at 30 g/ha treated after 10 days transplanting", "assay_type": "functional"}, "Oryza sativa [4]": {"test_system": "Oryza sativa", "test": "Effect on Oryza sativa (rice) plant growth in transplanted Oryza sativa field assessed as plant height at 20 g/ha treated after 7 days transplanting", "assay_type": "organism-based", "conditions": "in vivo, other, 168 h"}, "[5]": {"test_system": "Schoenoplectiella juncoides", "test": "Herbicidal activity against Schoenoplectiella juncoides assessed as growth inhibition in paddy condition under greenhouse at 5 g/ha measured after 18 days by preemergence activity assay", "assay_type": "functional", "conditions": "pre-emergence, 432 h, read-out: GI"}, "Pontederia vaginalis [6]": {"test_system": "Pontederia vaginalis", "test": "Herbicidal activity against Monochoria vaginalis assessed as weed control in transplanted rice field at 30 g/ha treated after 7 days transplanting", "assay_type": "functional"}, "Sagittaria pygmaea": {"test_system": "Sagittaria pygmaea", "test": "Herbicidal activity against two-leaf stage Sagittaria pygmaea assessed as growth inhibition treated 7 to 15 days after planting measured by post-emergence activity assay", "assay_type": "functional"}, "unidentified [7]": {"test_system": "unidentified", "test": "Herbicidal activity against broadleaf weed assessed as weed control in transplanted rice field at 30 g/ha treated after 3 days transplanting", "assay_type": "functional"}, "Cyperus serotinus [8]": {"test_system": "Cyperus serotinus", "test": "Herbicidal activity against Cyperus serotinus assessed as weed control in transplanted rice field at 30 g/ha treated after 3 days transplanting", "assay_type": "functional"}, "[9]": {"test_system": "Schoenoplectiella juncoides", "test": "Herbicidal activity against Schoenoplectiella juncoides assessed as weed control in transplanted rice field at 30 g/ha treated after 15 days transplanting", "assay_type": "functional"}, "Cyperus serotinus [10]": {"test_system": "Cyperus serotinus", "test": "Herbicidal activity against Cyperus serotinus assessed as growth inhibition measured after 2 days by preemergence activity assay", "assay_type": "functional"}, "Pontederia vaginalis [11]": {"test_system": "Pontederia vaginalis", "test": "Herbicidal activity against three to five-leaf stage Monochoria vaginalis assessed as growth inhibition treated 7 to 15 days after planting measured by postemergence activity assay", "assay_type": "functional"}, "Cyperus serotinus [12]": {"test_system": "Cyperus serotinus", "test": "Herbicidal activity against Cyperus serotinus assessed as weed control in transplanted rice field at 20 g/ha treated after 7 days transplanting", "assay_type": "functional"}, "Oryza sativa [13]": {"test_system": "Oryza sativa", "test": "Effect on Oryza sativa (rice) plant growth in transplanted Oryza sativa field assessed as number of tillers at 20 g/ha treated after 3 days transplanting", "assay_type": "organism-based", "conditions": "in vivo, other, 72 h"}, "unidentified [14]": {"test_system": "unidentified", "test": "Herbicidal activity against broadleaf weed assessed as weed control in transplanted rice field at 30 g/ha treated after 7 days transplanting", "assay_type": "functional"}, "Rotala indica": {"test_system": "Rotala indica", "test": "Herbicidal activity against Rotala indica assessed as growth inhibition in paddy condition under greenhouse at 5 g/ha measured after 18 days by preemergence activity assay", "assay_type": "functional", "conditions": "pre-emergence, 432 h, read-out: GI"}, "Eleocharis kuroguwai [15]": {"test_system": "Eleocharis kuroguwai", "test": "Herbicidal activity against Eleocharis kuroguwai assessed as growth inhibition treated 7 to 15 days after planting measured by post-emergence activity assay", "assay_type": "functional"}, "Echinochloa crus-galli": {"test_system": "Echinochloa crus-galli", "test": "Herbicidal activity against Echinochloa crus-galli (barnyard grass) assessed as weed control in transplanted rice field at 20 g/ha treated after 7 days transplanting", "assay_type": "functional"}, "Pontederia vaginalis [16]": {"test_system": "Pontederia vaginalis", "test": "Herbicidal activity against Monochoria vaginalis assessed as weed control in transplanted rice field at 20 g/ha treated after 3 days transplanting", "assay_type": "functional"}, "unidentified [17]": {"test_system": "unidentified", "test": "Herbicidal activity against broadleaf weed assessed as weed control in transplanted rice field at 30 g/ha treated after 15 days transplanting", "assay_type": "functional"}, "Oryza sativa [18]": {"test_system": "Oryza sativa", "test": "Effect on Oryza sativa (rice) plant growth in transplanted Oryza sativa field assessed as plant height at 30 g/ha treated after 7 days transplanting", "assay_type": "organism-based", "conditions": "in vivo, other, 168 h"}, "[19]": {"test_system": "Schoenoplectiella juncoides", "test": "Herbicidal activity against Schoenoplectiella juncoides assessed as weed control in transplanted rice field at 20 g/ha treated after 7 days transplanting", "assay_type": "functional"}}}
{"smiles": "CCOC(=O)c1cnn(C)c1S(=O)(=O)NC(=O)Nc1nc(OC)cc(OC)n1", "note": "[PYRAZOSULFURON ETHYL]", "values": [{"measurement": "I75", "setting": "Eleocharis kuroguwai [1]", "result": 1.9, "unit": "gAi/ha"}, {"measurement": "Activity", "setting": "Oryza sativa [2]", "result": 104, "unit": "%"}, {"measurement": "Activity", "setting": "unidentified [3]", "result": 100, "unit": "%"}, {"measurement": "Activity", "setting": "Oryza sativa [4]", "result": 107, "unit": "%"}, {"measurement": "inhibition of growth at 5 g/ha", "setting": "[5]", "result": "> 90", "unit": "%"}, {"measurement": "Activity", "setting": "Pontederia vaginalis [6]", "result": 100, "unit": "%"}, {"measurement": "I75", "setting": "Sagittaria pygmaea", "result": 2.7, "unit": "gAi/ha"}, {"measurement": "Activity", "setting": "unidentified [7]", "result": 100, "unit": "%"}, {"measurement": "Activity", "setting": "Cyperus serotinus [8]", "result": 100, "unit": "%"}, {"measurement": "Activity", "setting": "[9]", "result": 97, "unit": "%"}, {"measurement": "I75", "setting": "Cyperus serotinus [10]", "result": 0.9, "unit": "gAi/ha"}, {"measurement": "I75", "setting": "Pontederia vaginalis [11]", "result": 2.7, "unit": "gAi/ha"}, {"measurement": "Activity", "setting": "Cyperus serotinus [12]", "result": 100, "unit": "%"}, {"measurement": "Activity", "setting": "Oryza sativa [13]", "result": 100, "unit": "%"}, {"measurement": "Activity", "setting": "unidentified [14]", "result": 100, "unit": "%"}, {"measurement": "inhibition of growth at 5 g/ha", "setting": "Rotala indica", "result": "> 90", "unit": "%"}, {"measurement": "I75", "setting": "Eleocharis kuroguwai [15]", "result": 7.4, "unit": "gAi/ha"}, {"measurement": "Activity", "setting": "Echinochloa crus-galli", "result": 98, "unit": "%"}, {"measurement": "Activity", "setting": "Pontederia vaginalis [16]", "result": 100, "unit": "%"}, {"measurement": "Activity", "setting": "unidentified [17]", "result": 100, "unit": "%"}, {"measurement": "Activity", "setting": "Oryza sativa [18]", "result": 104, "unit": "%"}, {"measurement": "Activity", "setting": "[19]", "result": 100, "unit": "%"}]}
